Measured values taken from PubChem BioAssay (NCI).
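Interpolation was linear, between the two tested concentrations surrounding the appropriate level; five concentrations were tested over 48 hours in 96-well plates. At the GI50, growth is halved. TGI denotes the concentration required for complete inhibition of growth.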

Columns and labels:
Assay in all cases: NCI-60 cell line screen, 48 h
786-0 renal = test system: 786-0 renal
A498 renal = test system: A498 renal
A549 NSCLC = test system: A549 NSCLC
ACHN renal = test system: ACHN renal
BT-549 breast = test system: BT-549 breast
CCRF-CEM leukemia = test system: CCRF-CEM leukemia
COLO 205 colon = test system: COLO 205 colon
DU-145 prostate = test system: DU-145 prostate
EKVX NSCLC = test system: EKVX NSCLC
HCC-2998 colon = test system: HCC-2998 colon
HCT-116 colon = test system: HCT-116 colon
HCT-15 colon = test system: HCT-15 colon
HL-60(TB) leukemia = test system: HL-60(TB) leukemia
HOP-62 NSCLC = test system: HOP-62 NSCLC
HOP-92 NSCLC = test system: HOP-92 NSCLC
HS 578T breast = test system: HS 578T breast
HT29 colon = test system: HT29 colon
IGROV1 ovarian = test system: IGROV1 ovarian
K-562 leukemia = test system: K-562 leukemia
KM12 colon = test system: KM12 colon
LOX IMVI melanoma = test system: LOX IMVI melanoma
M14 melanoma = test system: M14 melanoma
MALME-3M melanoma = test system: MALME-3M melanoma
MCF7 breast = test system: MCF7 breast
MDA-MB-231 breast = test system: MDA-MB-231 breast
MDA-MB-435 = test system: MDA-MB-435
MOLT-4 leukemia = test system: MOLT-4 leukemia
NCI-H226 lung = test system: NCI-H226 lung
NCI-H23 lung = test system: NCI-H23 lung
NCI-H460 lung = test system: NCI-H460 lung
NCI-H522 lung = test system: NCI-H522 lung
NCI/ADR-RES ovarian = test system: NCI/ADR-RES ovarian
OVCAR-3 ovarian = test system: OVCAR-3 ovarian
OVCAR-4 ovarian = test system: OVCAR-4 ovarian
OVCAR-5 ovarian = test system: OVCAR-5 ovarian
OVCAR-8 ovarian = test system: OVCAR-8 ovarian
PC-3 prostate = test system: PC-3 prostate
RPMI-8226 leukemia = test system: RPMI-8226 leukemia
RXF 393 renal = test system: RXF 393 renal
SF-268 CNS = test system: SF-268 CNS
SF-295 CNS = test system: SF-295 CNS
SF-539 CNS = test system: SF-539 CNS
SK-MEL-2 melanoma = test system: SK-MEL-2 melanoma
SK-MEL-28 melanoma = test system: SK-MEL-28 melanoma
SK-MEL-5 melanoma = test system: SK-MEL-5 melanoma
SK-OV-3 ovarian = test system: SK-OV-3 ovarian
SN12C renal = test system: SN12C renal
SNB-19 CNS = test system: SNB-19 CNS
SNB-75 CNS = test system: SNB-75 CNS
SR leukemia = test system: SR leukemia
SW-620 colon = test system: SW-620 colon
T-47D breast = test system: T-47D breast
TK-10 renal = test system: TK-10 renal
U251 CNS = test system: U251 CNS
UACC-257 melanoma = test system: UACC-257 melanoma
UACC-62 melanoma = test system: UACC-62 melanoma
UO-31 renal = test system: UO-31 renal

For `O=C(C1CC1)N1CC[C@@H](Cc2n[nH]c(=O)n2-c2ccc(-c3ccc4occc4c3)cc2)C1`, the GI50 (786-0 renal) was 12.3 µM, the TGI (786-0 renal) was > 100 µM and the GI50 (A498 renal) was 15 µM. The TGI (A498 renal) was > 85.4 µM, the GI50 (A549 NSCLC) was 16.9 µM and the TGI (A549 NSCLC) was > 100 µM. For the same compound, the GI50 (ACHN renal) was 11.8 µM, the TGI (ACHN renal) was 54.8 µM and the GI50 (BT-549 breast) was 1.65 µM. For the same compound, the TGI (BT-549 breast) was 48.7 µM, the GI50 (CCRF-CEM leukemia) was 15.6 µM and the TGI (CCRF-CEM leukemia) was > 100 µM. It also gave a GI50 (COLO 205 colon) of 15 µM, a TGI (COLO 205 colon) of 72.5 µM and a GI50 (DU-145 prostate) of 23.4 µM. For the same compound, the TGI (DU-145 prostate) was > 100 µM, the GI50 (EKVX NSCLC) was 12.6 µM and the TGI (EKVX NSCLC) was > 100 µM. For the same compound, the GI50 (HCC-2998 colon) was 33.9 µM, the TGI (HCC-2998 colon) was > 100 µM and the GI50 (HCT-116 colon) was 14.3 µM. For the same compound, the TGI (HCT-116 colon) was 84 µM, the GI50 (HCT-15 colon) was 11.2 µM and the TGI (HCT-15 colon) was > 100 µM. The GI50 (HL-60(TB) leukemia) was 0.131 µM, the TGI (HL-60(TB) leukemia) was > 44.4 µM and the GI50 (HOP-62 NSCLC) was 23.4 µM. For the same compound, the TGI (HOP-62 NSCLC) was > 100 µM, the GI50 (HOP-92 NSCLC) was 24.4 µM and the TGI (HOP-92 NSCLC) was > 100 µM. The GI50 (HS 578T breast) was 21.3 µM, the TGI (HS 578T breast) was > 100 µM and the GI50 (HT29 colon) was 7.51 µM. For the same compound, the TGI (HT29 colon) was > 81.1 µM, the GI50 (IGROV1 ovarian) was 21.2 µM and the TGI (IGROV1 ovarian) was > 100 µM. For the same compound, the GI50 (K-562 leukemia) was 8.18 µM, the TGI (K-562 leukemia) was > 100 µM and the GI50 (KM12 colon) was 17.6 µM. For the same compound, the TGI (KM12 colon) was > 100 µM, the GI50 (LOX IMVI melanoma) was 10.3 µM and the TGI (LOX IMVI melanoma) was 51.3 µM. For the same compound, the GI50 (M14 melanoma) was 17.2 µM, the TGI (M14 melanoma) was > 100 µM and the GI50 (MALME-3M melanoma) was 22.4 µM. For the same compound, the TGI (MALME-3M melanoma) was > 87.8 µM, the GI50 (MCF7 breast) was 1.62 µM and the TGI (MCF7 breast) was > 100 µM. For the same compound, the GI50 (MDA-MB-231 breast) was 20.4 µM, the TGI (MDA-MB-231 breast) was > 100 µM and the GI50 (MDA-MB-435) was 14.8 µM. The TGI (MDA-MB-435) was > 87.6 µM, the GI50 (MOLT-4 leukemia) was 6.09 µM and the TGI (MOLT-4 leukemia) was > 88.5 µM. The GI50 (NCI-H226 lung) was 19.6 µM, the TGI (NCI-H226 lung) was > 100 µM and the GI50 (NCI-H23 lung) was 39.1 µM. The TGI (NCI-H23 lung) was > 100 µM, the GI50 (NCI-H460 lung) was 3.2 µM and the TGI (NCI-H460 lung) was > 100 µM. The GI50 (NCI-H522 lung) was 20.9 µM, the TGI (NCI-H522 lung) was > 92 µM and the GI50 (NCI/ADR-RES ovarian) was 30.8 µM. The TGI (NCI/ADR-RES ovarian) was > 100 µM, the GI50 (OVCAR-3 ovarian) was 15.8 µM and the TGI (OVCAR-3 ovarian) was > 73.7 µM. For the same compound, the GI50 (OVCAR-4 ovarian) was 9.02 µM, the TGI (OVCAR-4 ovarian) was > 94.5 µM and the GI50 (OVCAR-5 ovarian) was 42.5 µM. The TGI (OVCAR-5 ovarian) was > 100 µM, the GI50 (OVCAR-8 ovarian) was 25.3 µM and the TGI (OVCAR-8 ovarian) was > 100 µM. For the same compound, the GI50 (PC-3 prostate) was 23.2 µM, the TGI (PC-3 prostate) was > 100 µM and the GI50 (RPMI-8226 leukemia) was 2.82 µM. For the same compound, the TGI (RPMI-8226 leukemia) was > 75.4 µM, the GI50 (RXF 393 renal) was 24.2 µM and the TGI (RXF 393 renal) was > 100 µM. For the same compound, the GI50 (SF-268 CNS) was 12.4 µM, the TGI (SF-268 CNS) was > 100 µM and the GI50 (SF-295 CNS) was 11.5 µM. For the same compound, the TGI (SF-295 CNS) was > 100 µM, the GI50 (SF-539 CNS) was 8.16 µM and the TGI (SF-539 CNS) was > 100 µM. For the same compound, the GI50 (SK-MEL-2 melanoma) was 21.5 µM, the TGI (SK-MEL-2 melanoma) was 70.3 µM and the GI50 (SK-MEL-28 melanoma) was 32 µM. For the same compound, the TGI (SK-MEL-28 melanoma) was > 100 µM, the GI50 (SK-MEL-5 melanoma) was 12 µM and the TGI (SK-MEL-5 melanoma) was 33.6 µM. For the same compound, the GI50 (SK-OV-3 ovarian) was 25.4 µM, the TGI (SK-OV-3 ovarian) was > 100 µM and the GI50 (SN12C renal) was 23.2 µM. For the same compound, the TGI (SN12C renal) was > 100 µM, the GI50 (SNB-19 CNS) was 17 µM and the TGI (SNB-19 CNS) was > 100 µM. For the same compound, the GI50 (SNB-75 CNS) was 13.7 µM, the TGI (SNB-75 CNS) was > 94.1 µM and the GI50 (SR leukemia) was 23.9 µM. For the same compound, the TGI (SR leukemia) was > 100 µM, the GI50 (SW-620 colon) was 27.6 µM and the TGI (SW-620 colon) was > 100 µM. For the same compound, the GI50 (T-47D breast) was 18 µM, the TGI (T-47D breast) was > 96.5 µM and the GI50 (TK-10 renal) was 28.3 µM. For the same compound, the TGI (TK-10 renal) was > 100 µM, the GI50 (U251 CNS) was 25.4 µM and the TGI (U251 CNS) was > 100 µM. For the same compound, the GI50 (UACC-257 melanoma) was 29 µM, the TGI (UACC-257 melanoma) was > 96.6 µM and the GI50 (UACC-62 melanoma) was 21.1 µM. For the same compound, the TGI (UACC-62 melanoma) was > 100 µM, the GI50 (UO-31 renal) was 1.91 µM and the TGI (UO-31 renal) was 65.4 µM.
